{
  "source": "patent US12637454B2",
  "about": "“Heterocyclic monoacylglycerol lipase (MAGL) inhibitors” (Hoffmann-La Roche Inc., priority 2019, dated 2026)",
  "data": [
    {"molecular_target": "T1, MAGL (Homo sapiens, UniProt Q99685)", "T1 sequence (Q99685 1-303)": "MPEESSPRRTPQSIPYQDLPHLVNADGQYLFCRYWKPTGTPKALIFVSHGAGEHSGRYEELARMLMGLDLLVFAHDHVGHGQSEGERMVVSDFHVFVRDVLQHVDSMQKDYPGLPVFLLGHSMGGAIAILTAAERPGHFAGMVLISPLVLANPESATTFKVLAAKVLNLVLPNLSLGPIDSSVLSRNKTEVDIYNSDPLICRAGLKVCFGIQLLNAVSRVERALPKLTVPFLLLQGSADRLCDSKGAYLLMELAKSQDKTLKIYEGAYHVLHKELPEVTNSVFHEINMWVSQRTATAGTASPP", "test": "2-AG assay (MAGL inhibitory activity, hydrolysis of 2-arachidonoylglycerol followed by mass spectrometry)", "type": "biochemical", "details": "50 pM MAGL, 8 μM 2-arachidonoylglycerol, 15 min preincubation, 30 min incubation at RT", "how_it_was_run": "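MAGL at 50 pM preincubated 15 min at RT with compound (12.5 μM to 0.8 pM, 3-fold) in 50 mM TRIS, 1 mM EDTA, 0.01% Tween. Reaction with 8 μM 2-arachidonoylglycerol ran 30 min at RT, quenched with ACN; arachidonic acid measured by SPE-MS/MS as ratio to d8-arachidonic acid.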", "units": {"IC50": "nM"}, "values": [
      {"compound": "O=C(c1cccc(N2CC[C@@H](O)C2)c1Cl)N1CCN2C[C@@](O)(c3ccc(Cl)cc3)CC[C@@H]2C1", "note": "[Example 45, [(7S,9aR)-7-(4-chlorophenyl)-7-hydroxy-3,4,6,8,9,9a-hexahydro-1H-pyrido[1,2-a]pyrazin-2-yl]-[2-chloro-3-[(3R)-3-hydroxypyrrolidin-1-yl]phenyl]methanone]", "IC50": 66.8},
      {"compound": "CC1(O)CN(c2cccc(C(=O)N3CCN4C[C@@](O)(c5ccc(Cl)cc5)CC[C@@H]4C3)c2Cl)C1", "note": "[Example 46, [(7S,9aR)-7-(4-chlorophenyl)-7-hydroxy-3,4,6,8,9,9a-hexahydro-1H-pyrido[1,2-a]pyrazin-2-yl]-[2-chloro-3-(3-hydroxy-3-methylazetidin-1-yl)phenyl]methanone]", "IC50": 234},
      {"compound": "O=C(c1cccc(N2CCC[C@H](O)C2)c1Cl)N1CCN2C[C@@](O)(c3ccc(F)c(Cl)c3)CC[C@@H]2C1", "note": "[Example 47, [(7S,9aR)-7-(3-chloro-4-fluorophenyl)-7-hydroxy-3,4,6,8,9,9a-hexahydro-1H-pyrido[1,2-a]pyrazin-2-yl]-[2-chloro-3-[(3S)-3-hydroxypiperidin-1-yl]phenyl]methanone]", "IC50": 41.5},
      {"compound": "O=C(c1cccc(N2CCC[C@@H](O)C2)c1Cl)N1CCN2C[C@@](O)(c3ccc(F)c(Cl)c3)CC[C@@H]2C1", "note": "[Example 48, [(7S,9aR)-7-(3-chloro-4-fluorophenyl)-7-hydroxy-3,4,6,8,9,9a-hexahydro-1H-pyrido[1,2-a]pyrazin-2-yl]-[2-chloro-3-[(3R)-3-hydroxypiperidin-1-yl]phenyl]methanone]", "IC50": 292},
      {"compound": "O=C(c1cccc(N2CCC(O)CC2)c1Cl)N1CCN2C[C@@](O)(c3ccc(Cl)cc3)CC[C@@H]2C1", "note": "[Example 49, [(7S,9aR)-7-(4-chlorophenyl)-7-hydroxy-3,4,6,8,9,9a-hexahydro-1H-pyrido[1,2-a]pyrazin-2-yl]-[2-chloro-3-(4-hydroxypiperidin-1-yl)phenyl]methanone]", "IC50": 80.8},
      {"compound": "O=C(c1cccc(N2C[C@H](O)[C@@H](O)C2)c1Cl)N1CCN2C[C@@](O)(c3ccc(F)c(Cl)c3)CC[C@@H]2C1", "note": "[Example 51, [(7S,9aR)-7-(3-chloro-4-fluorophenyl)-7-hydroxy-3,4,6,8,9,9a-hexahydro-1H-pyrido[1,2-a]pyrazin-2-yl]-[2-chloro-3-[(3S,4S)-3,4-dihydroxypyrrolidin-1-yl]phenyl]methanone]", "IC50": 10.9},
      {"compound": "O=C(c1cccc(N2CC(F)(CO)C2)c1Cl)N1CCN2C[C@@](O)(c3ccc(F)c(Cl)c3)CC[C@@H]2C1", "note": "[Example 52, [(7S,9aR)-7-(3-chloro-4-fluorophenyl)-7-hydroxy-3,4,6,8,9,9a-hexahydro-1H-pyrido[1,2-a]pyrazin-2-yl]-[2-chloro-3-[3-fluoro-3-(hydroxymethyl)azetidin-1-yl]phenyl]methanone]", "IC50": 84.2},
      {"compound": "O=C(c1cccc(N2CC(CO)C2)c1Cl)N1CCN2C[C@@](O)(c3ccc(F)c(Cl)c3)CC[C@@H]2C1", "note": "[Example 53, [(7S,9aR)-7-(3-chloro-4-fluorophenyl)-7-hydroxy-3,4,6,8,9,9a-hexahydro-1H-pyrido[1,2-a]pyrazin-2-yl]-[2-chloro-3-[3-(hydroxymethyl)azetidin-1-yl]phenyl]methanone]", "IC50": 79.7},
      {"compound": "O=C(c1cccc(-c2cc[nH]n2)c1Cl)N1CCN2C[C@@](O)(c3ccc(F)c(Cl)c3)CC[C@@H]2C1", "note": "[Example 54, [(7S,9aR)-7-(3-chloro-4-fluorophenyl)-7-hydroxy-3,4,6,8,9,9a-hexahydro-1H-pyrido[1,2-a]pyrazin-2-yl]-[2-chloro-3-(1H-pyrazol-3-yl)phenyl]methanone]", "IC50": 3.08},
      {"compound": "O=C(c1cccc(-c2cc[nH]n2)c1F)N1CCN2C[C@@](O)(c3ccc(F)c(Cl)c3)CC[C@@H]2C1", "note": "[Example 55, [(7S,9aR)-7-(3-chloro-4-fluorophenyl)-7-hydroxy-3,4,6,8,9,9a-hexahydro-1H-pyrido[1,2-a]pyrazin-2-yl]-[2-fluoro-3-(1H-pyrazol-3-yl)phenyl]methanone]", "IC50": 9.04},
      {"compound": "O=C(c1cccc(-c2ccsn2)c1F)N1CCN2C[C@@](O)(c3ccc(Cl)cc3)CC[C@@H]2C1", "note": "[Example 56, [(7S,9aR)-7-(4-chlorophenyl)-7-hydroxy-3,4,6,8,9,9a-hexahydro-1H-pyrido[1,2-a]pyrazin-2-yl]-[2-fluoro-3-(1,2-thiazol-3-yl)phenyl]methanone]", "IC50": 37.5},
      {"compound": "O=C(c1cccc(-c2[nH]ncc2F)c1Cl)N1CCN2C[C@@](O)(c3ccc(F)c(Cl)c3)CC[C@@H]2C1", "note": "[Example 57, [(7S,9aR)-7-(3-chloro-4-fluorophenyl)-7-hydroxy-3,4,6,8,9,9a-hexahydro-1H-pyrido[1,2-a]pyrazin-2-yl]-[2-chloro-3-(4-fluoro-1H-pyrazol-5-yl)phenyl]methanone]", "IC50": 0.74},
      {"compound": "O=C(c1cccc(-c2ncsn2)c1Cl)N1CCN2C[C@@](O)(c3ccc(F)c(Cl)c3)CC[C@@H]2C1", "note": "[Example 58, [(7S,9aR)-7-(3-chloro-4-fluorophenyl)-7-hydroxy-3,4,6,8,9,9a-hexahydro-1H-pyrido[1,2-a]pyrazin-2-yl]-[2-chloro-3-(1,2,4-thiadiazol-3-yl)phenyl]methanone]", "IC50": 14.2},
      {"compound": "COc1cccc(C(=O)N2CCN3C[C@@](O)(c4ccc(F)c(F)c4)CC[C@@H]3C2)c1Cl", "note": "[Example 59, [(7S,9aR)-7-(3,4-difluorophenyl)-7-hydroxy-3,4,6,8,9,9a-hexahydro-1H-pyrido[1,2-a]pyrazin-2-yl]-(2-chloro-3-methoxyphenyl)methanone]", "IC50": 11.2},
      {"compound": "COc1cccc(C(=O)N2CCN3C[C@](O)(c4ccc(F)c(F)c4)CC[C@H]3C2)c1Cl", "note": "[Example 60, [(7R,9aS)-7-(3,4-difluorophenyl)-7-hydroxy-3,4,6,8,9,9a-hexahydro-1H-pyrido[1,2-a]pyrazin-2-yl]-(2-chloro-3-methoxyphenyl)methanone]", "IC50": 118},
      {"compound": "O=C(c1cccc(-c2ccn[nH]2)c1F)N1CCN2C[C@@](O)(c3ccc(F)c(F)c3)CC[C@@H]2C1", "note": "[Example 61, [(7S,9aR)-7-(3,4-difluorophenyl)-7-hydroxy-3,4,6,8,9,9a-hexahydro-1H-pyrido[1,2-a]pyrazin-2-yl]-[2-fluoro-3-(1H-pyrazol-5-yl)phenyl]methanone]", "IC50": 14},
      {"compound": "O=C(c1cccc(-c2[nH]ncc2F)c1F)N1CCN2C[C@@](O)(c3ccc(F)c(F)c3)CC[C@@H]2C1", "note": "[Example 62, [(7S,9aR)-7-(3,4-difluorophenyl)-7-hydroxy-3,4,6,8,9,9a-hexahydro-1H-pyrido[1,2-a]pyrazin-2-yl]-[2-fluoro-3-(4-fluoro-1H-pyrazol-5-yl)phenyl]methanone]", "IC50": 20.5},
      {"compound": "O=C(c1cccc(N2CC(O)C2)c1Cl)N1CCN2C[C@@](O)(c3ccc(F)c(F)c3)CC[C@@H]2C1", "note": "[Example 63, [(7S,9aR)-7-(3,4-difluorophenyl)-7-hydroxy-3,4,6,8,9,9a-hexahydro-1H-pyrido[1,2-a]pyrazin-2-yl]-[2-chloro-3-(3-hydroxyazetidin-1-yl)phenyl]methanone]", "IC50": 39.4},
      {"compound": "O=C(c1cccc(-c2[nH]ncc2F)c1Cl)N1CCN2C[C@@](O)(c3ccc(C(F)(F)F)cn3)CC[C@@H]2C1", "note": "[Example 64]", "IC50": 13.4},
      {"compound": "O=C(c1cccc2c1CCN2)N1CCN2C[C@@](O)(c3ccc(F)c(Cl)c3)CC[C@@H]2C1", "note": "[Example 65, [(7S,9aR)-7-(3-chloro-4-fluorophenyl)-7-hydroxy-3,4,6,8,9,9a-hexahydro-1H-pyrido[1,2-a]pyrazin-2-yl]-(2,3-dihydro-1H-indol-4-yl)methanone]", "IC50": 68.4},
      {"compound": "O=C(c1cncc(-c2cc[nH]n2)c1Cl)N1CCN2C[C@@](O)(c3ccc(Cl)cc3)CC[C@@H]2C1", "note": "[Example 66, [(7S,9aR)-7-(4-chlorophenyl)-7-hydroxy-3,4,6,8,9,9a-hexahydro-1H-pyrido[1,2-a]pyrazin-2-yl]-[4-chloro-5-(1H-pyrazol-3-yl)pyridin-3-yl]methanone]", "IC50": 172},
      {"compound": "O=C(c1cccc(-c2ccsn2)c1Cl)N1CCN2C[C@@](O)(c3ccc(Cl)cc3)CC[C@@H]2C1", "note": "[Example 67, [(7S,9aR)-7-(4-chlorophenyl)-7-hydroxy-3,4,6,8,9,9a-hexahydro-1H-pyrido[1,2-a]pyrazin-2-yl]-[2-chloro-3-(1,2-thiazol-3-yl)phenyl]methanone]", "IC50": 14.6},
      {"compound": "O=C(c1cccc(-c2cnsc2)c1Cl)N1CCN2C[C@@](O)(c3ccc(Cl)cc3)CC[C@@H]2C1", "note": "[Example 68, [(7S,9aR)-7-(4-chlorophenyl)-7-hydroxy-3,4,6,8,9,9a-hexahydro-1H-pyrido[1,2-a]pyrazin-2-yl]-[2-chloro-3-(1,2-thiazol-4-yl)phenyl]methanone]", "IC50": 82.5},
      {"compound": "O=C(c1cccc(-c2ccsn2)c1Cl)N1CCN2C[C@@](O)(c3ccc(C(F)(F)F)cn3)CC[C@@H]2C1", "note": "[Example 69, [(7R,9aR)-7-hydroxy-7-[5-(trifluoromethyl)pyridin-2-yl]-3,4,6,8,9,9a-hexahydro-1H-pyrido[1,2-a]pyrazin-2-yl]-[2-chloro-3-(1,2-thiazol-3-yl)phenyl]methanone]", "IC50": 126},
      {"compound": "Cc1c(C(=O)N2CCN3C[C@@](O)(c4ccc(Cl)cc4)CC[C@@H]3C2)cncc1-c1cc[nH]n1", "note": "[Example 70, [(7S,9aR)-7-(4-chlorophenyl)-7-hydroxy-3,4,6,8,9,9a-hexahydro-1H-pyrido[1,2-a]pyrazin-2-yl]-[4-methyl-5-(1H-pyrazol-3-yl)pyridin-3-yl]methanone]", "IC50": 994}
    ]}
  ]
}
